According to US5827837A, “Polyanion anti-inflammatory agents” (priority 1996, dated 1998):
Entries after “also recorded” stand apart in the source; their conditions may differ.

Key:
[1] = system: PMN within the peritoneal cavity; assay: Thioglycollate-induced peritoneal inflammation, PMN accumulation; assay type: in vivo, mice (Balb/c); details: mice
E-selectin (E-COS) = assay: LS 180 cell adhesion to COS cells transfected with full length E-selectin (E-COS); assay type: cell-based; details: 0.5 mM
Protocol: The effect of inositols on selectin-dependent cell adhesion was assessed using several in vitro assay systems. In the first, a colon cancer cell line, LS 180, was chosen because it binds to all three selecting.
COS-1 cells were transfected as described (Seed, B., et al., Proc. Natl. Acad. Sci., U.S.A., 84:3365, 1987; Aruffo, A., Current Protocols In Molecular Biology, eds. supra, 1992) with pCDM7/pCDM8 expression vectors containing the full-length E-, P- and L-selectin cDNA. Transfected COS-1 cells were seeded on gelatin coated coverslips.

[2] = molecular target: T1, E-selectin-lg fusion protein (Homo sapiens, UniProt P16581); assay: Competition ELISA: binding of E-selectin-Ig to immobilized BSA-sLe^x; details: BSA-sLe^x competition ELISA
T1 construct: Each selectin-lg contains the lectin domain, epidermal growth factor domain, and one (L-selectin-lg), two (P-selectin-lg) or six (E-selectin-lg) complement regulatory repeats; made in house
Source text: Selectin-lg fusion proteins are recombinant chimeric molecules containing extracellular regions of selectins coupled to the hinge, CH2, and CH3 regions of human IgG1 (Aruffo, A., et al., Cell, 67:35, 1991; Walz, G., et al., Science, 250:1132, 1990). Each selectin-lg contains the lectin domain, epidermal growth factor domain, and one (L-selectin-lg), two (P-selectin-lg) or six (E-selectin-lg) complement regulatory repeats of the parent molecules. DNAs encoding selectin-Ig inserted in pCDM7 allowed transient expression of recombinant proteins in COS cells as previously described (Seed, B., et al., Proc. Natl. Acad. Sci., U.S.A., 84:3365, 1987; Aruffo, A., Current Protocols In Molecular Biology, eds. Ausubel, F. M., et al, 16:13.1, Greene Publishing Associates and Wiley-lnterscience, New York, N.Y., 1992). These DNAs were also ligated into pNUT (Palmiter, R. D., et al, Cell, 50:435, 1987) for amplification and stable expression in BHK cells. The fusion proteins were affinity purified from culture media using protein A (Pierce Chemical Company, Rockford, Ill.) or protein G (Pharmacia, Piscataway, N.J.) Sepharose, as previously described (Aruffo, A., et al., Cell, 67:35, 1991; Aruffo, A., Current Protocols In Molecular Biology, eds. Ausubel, F. M., et al, supra, 1992). Competition binding ELISAs using P- and E-selectin-lg were performed essentially as described (Nelson, R. M., et al., J. Clin. Invest., 91:1157, 1993), except that the assay buffer was 20 mM HEPES pH 7.4, 150 mM NaCl, 2 mM CaCl2, and 0.25 mM thimerosal, containing 10 mg/ml BSA, protease-free, (Miles Inc., Kankakee, Ill.). Selectin concentrations were from 10 to 30 nM. […] To increase L-selectin binding, an assay similar to that previously described was used (Foxall, C., et al., J. Cell Biol., 117:895, 1992), in which the L-selectin-lg (10-20 nM) was allowed to form aggregates with HRP-conjugated anti-lg antibody for 30 minutes prior to addition of inositols and incubation on the BSA-sLe^x -coated plate. IC50 values were calculated by fitting binding data to the equation: fraction of maximal binding=IC50 […] using nonlinear least squares analysis software (Origin, Microcal Inc, Northampton, Mass.). InsP6 (dodecasodium salt), InsS6 (hexapotassium salt), myo-inositol 1 monophosphate (cyclohexylammonium salt), and myo-inositol were from Sigma Chemical Company (St. Louis, Mo.). Stock solutions were prepared daily in 0.9% NaCl and sterilized by 0.22 μm filtration. InsP6 solutions were adjusted at pH 7.4 with HCl.
L-, P-, or E-selectin-lg fusion proteins were incubated for 2-3 hours on microtiter plates coated with the neoglycoprotein BSA-sLe^x, the plates washed, and bound selectin-lg was detected using a peroxidase-conjugated antibody directed against the lg portion and a chromogenic substrate. To determine blocking activity, solution-phase lnsP6 (.circle-solid.), InsS6 (.largecircle.), or inositol (.box-solid.) at the indicated concentrations were added to the solutions containing selectin-Ig fusion proteins prior to transfer to microtiter plates (competition ELISA).

[3] = system: PMN within the peritoneal cavity; assay: Zymosan-induced peritoneal inflammation, PMN accumulation; assay type: in vivo, mice (Balb/c); details: mice
Protocol: Mice (Balb/c males, 4-5 weeks old, 20-24 grams) were injected i.p. with 1 ml of 3% thioglycollate broth (lot #622462, Clinical Standard Laboratories, Inc., Rancho Dominguez, Calif.) left panel, or 0.5 mg of zymosan (Sigma) in 1 ml of sterile, pyrogen-free saline (Abbott Laboratories, North Chicago, Ill.), (FIG. 4, right panel). Control animals were injected i.p. with 1 ml of sterile pyrogen-free saline. After 40 and 80 min the animals received i.v. injections of 0.2 ml of sterile saline with or without InsP6 (total of 80 μmol/kg) or inositol (400 μmol/kg). Mice were sacrificed at 120 min and PMN within the peritoneal cavity were collected by lavage with 10 ml of ice-cold PBS containing 10 U/ml of heparin. After red blood cell lysis, the cells were counted in a hemocytometer (2 separate counts per sample, in triplicate). The percentage of PMN was assessed by counting cytospin preparations (two counts per slide, 300 cells per count) stained with Dif-Quick stain (Baxter, McGaw Park, Ill). Data are expressed as the mean ±s.d. of three separate experiments, with 5-6 animals per group in each experiment except for the group injected with saline i.p. that was constituted by 2 animal per experiment. […]

T1 sequence (P16581 with tags, fused parts or gaps limits assumed): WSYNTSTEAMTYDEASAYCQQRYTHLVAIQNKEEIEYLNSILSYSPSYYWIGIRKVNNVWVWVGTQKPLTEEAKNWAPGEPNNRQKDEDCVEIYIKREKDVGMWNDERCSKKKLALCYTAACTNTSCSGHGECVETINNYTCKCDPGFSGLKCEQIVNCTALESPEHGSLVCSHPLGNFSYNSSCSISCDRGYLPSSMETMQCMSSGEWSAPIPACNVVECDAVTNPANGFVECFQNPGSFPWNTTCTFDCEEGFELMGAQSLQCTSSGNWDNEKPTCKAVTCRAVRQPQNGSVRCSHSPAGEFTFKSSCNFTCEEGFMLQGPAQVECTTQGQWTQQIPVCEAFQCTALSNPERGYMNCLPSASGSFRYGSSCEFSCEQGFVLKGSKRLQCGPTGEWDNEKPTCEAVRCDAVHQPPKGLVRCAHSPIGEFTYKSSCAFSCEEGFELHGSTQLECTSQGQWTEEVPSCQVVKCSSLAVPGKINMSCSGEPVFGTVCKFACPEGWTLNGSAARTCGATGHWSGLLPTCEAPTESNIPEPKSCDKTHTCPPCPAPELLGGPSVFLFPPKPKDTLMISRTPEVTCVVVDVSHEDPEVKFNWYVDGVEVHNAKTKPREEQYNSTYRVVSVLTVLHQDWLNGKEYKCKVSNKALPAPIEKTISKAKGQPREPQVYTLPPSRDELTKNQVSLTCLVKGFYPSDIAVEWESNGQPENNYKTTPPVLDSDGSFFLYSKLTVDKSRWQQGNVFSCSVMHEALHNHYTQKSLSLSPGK

SMILES	inhibition of PMN accumulation, single subcutaneous injection ([1]; 40-100 μmol/kg s.c. 3 min after thioglycollate)	reduction in PMN recovered from the peritoneal cavity ([1]; i.v. at 40 and 80 min, total 80 μmol/kg, PMN at 120 min, 3 experiments)	inhibition of LS 180 cell adhesion to E-COS (E-selectin (E-COS))	inhibition of E-selectin-Ig binding [2]	effect in zymosan-induced peritoneal inflammation ([3]; relative to thioglycollate model)	inhibition of PMN accumulation, thioglycollate model ([1]; 400 μmol/kg, 1 experiment)	inhibition of PMN accumulation, zymosan model ([3]; 400 μmol/kg, 1 experiment)
O=P(O)(O)O[C@H]1[C@H](OP(=O)(O)O)[C@@H](OP(=O)(O)O)[C@H](OP(=O)(O)O)[C@@H](OP(=O)(O)O)[C@H]1OP(=O)(O)O [InsP6, myo-inositol hexakisphosphate]	46-59%	58±3%	< 5%	failed to inhibit the binding of E-selectin-lg at concentrations up to 5 mM; also recorded: did not block E-selectin-lg binding	equally effective		
O=S(=O)(O)O[C@H]1[C@H](OS(=O)(=O)O)[C@@H](OS(=O)(=O)O)[C@H](OS(=O)(=O)O)[C@@H](OS(=O)(=O)O)[C@H]1OS(=O)(=O)O [InsS6, myo-inositol hexakissulfate]				failed to inhibit the binding of E-selectin-lg at concentrations up to 5 mM		33±13%	31±11%
